Source: PubChem BioAssay AID328 (DTP/NCI, 2004)
Where “and” joins values, the source holds several entries; their conditions need not be identical. Equal entries are not always repeated. Toxic doses and inconclusive results are not listed.

System: BDF1 mice, P388 leukemia ip, median survival T/C
Assay: NCI In Vivo Anticancer Drug Screen. Data for tumor model P388 Leukemia (intraperitoneal) in B6D2F1 (BDF1) mice
Details: endpoint: median survival time, higher = longer survival
In short: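 Reported as T/C, where T is the survival measurement in dosed animals and C the same measurement in vehicle controls.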

[1] = dose: 50.0 mg/kg/injection, schedule: Q04DX003 (ip), vehicle: saline
[2] = dose: 100.0 mg/kg/injection, schedule: Q04DX003 (ip), vehicle: saline
[3] = dose: 200.0 mg/kg/injection, schedule: Q04DX003 (ip), vehicle: saline
[4] = dose: 100.0 mg/kg/injection, schedule: Q01DX009 (ip), vehicle: Klucel (hydroxypropylcellulose) (HPC)
[5] = dose: 100.0 mg/kg/injection, schedule: Q04DX003 (ip), vehicle: Klucel (hydroxypropylcellulose) (HPC)
[6] = dose: 200.0 mg/kg/injection, schedule: Q01DX009 (ip), vehicle: Klucel (hydroxypropylcellulose) (HPC)
[7] = dose: 400.0 mg/kg/injection, schedule: Q01DX009 (ip), vehicle: Klucel (hydroxypropylcellulose) (HPC)
[8] = dose: 25.0 mg/kg/injection, schedule: Q04DX003 (ip), vehicle: Klucel (hydroxypropylcellulose) (HPC)
[9] = dose: 50.0 mg/kg/injection, schedule: Q04DX003 (ip), vehicle: Klucel (hydroxypropylcellulose) (HPC)
[10] = dose: 200.0 mg/kg/injection, schedule: Q01DX009 (ip), vehicle: saline with Tween-80
[11] = dose: 50.0 mg/kg/injection, schedule: Q01DX009 (ip), vehicle: saline
[12] = dose: 100.0 mg/kg/injection, schedule: Q01DX009 (ip), vehicle: saline
[13] = dose: 200.0 mg/kg/injection, schedule: Q01DX009 (ip), vehicle: saline
[14] = dose: 50.0 mg/kg/injection, schedule: Q01DX009 (ip), vehicle: saline with Tween-80
[15] = dose: 100.0 mg/kg/injection, schedule: Q01DX009 (ip), vehicle: saline with Tween-80
[16] = dose: 100.0 mg/kg/injection, schedule: Q04DX003 (ip), vehicle: saline with Tween-80
[17] = dose: 200.0 mg/kg/injection, schedule: Q04DX003 (ip), vehicle: saline with Tween-80
[18] = dose: 400.0 mg/kg/injection, schedule: Q04DX003 (ip), vehicle: saline with Tween-80
[19] = dose: 100.0 mg/kg/injection, schedule: Q04DX003 (ip), vehicle: water
[20] = dose: 200.0 mg/kg/injection, schedule: Q04DX003 (ip), vehicle: water

Structure (SMILES): CCOC(=O)c1c[nH]c2ccc(N(CCCl)CCCl)cc12
- T/C (dose: 0.29 mg/kg/injection, schedule: Q01DX009 (ip), vehicle: saline with Tween-80): 101 % of control
- T/C (dose: 0.44 mg/kg/injection, schedule: Q01DX009 (ip), vehicle: saline with Tween-80): 101 % of control
- T/C (dose: 0.88 mg/kg/injection, schedule: Q01DX009 (ip), vehicle: saline with Tween-80): 152 % of control
- T/C (dose: 0.88 mg/kg/injection, schedule: Q04DX003 (ip), vehicle: saline with Tween-80): 118 % of control
- T/C (dose: 1.32 mg/kg/injection, schedule: Q04DX003 (ip), vehicle: saline with Tween-80): 122 % of control
- T/C (dose: 1.33 mg/kg/injection, schedule: Q01DX009 (ip), vehicle: saline with Tween-80): 158 % of control
- T/C (dose: 2.0 mg/kg/injection, schedule: Q01DX009 (ip), vehicle: saline with Tween-80): 177 % of control
- T/C (dose: 2.66 mg/kg/injection, schedule: Q01DX009 (ip), vehicle: saline with Tween-80): 164 % of control
- T/C (dose: 3.0 mg/kg/injection, schedule: Q01DX009 (ip), vehicle: saline with Tween-80): 186 % of control
- T/C (dose: 4.0 mg/kg/injection, schedule: Q01DX009 (ip), vehicle: saline with Tween-80): 176 % of control
- T/C (dose: 5.0 mg/kg/injection, schedule: Q04DX003 (ip), vehicle: saline with Tween-80): 158 % of control
- T/C (dose: 6.0 mg/kg/injection, schedule: Q01DX009 (ip), vehicle: saline with Tween-80): 191 % of control
- T/C (dose: 7.5 mg/kg/injection, schedule: Q04DX003 (ip), vehicle: saline with Tween-80): 166 % of control
- T/C (dose: 9.0 mg/kg/injection, schedule: Q01DX009 (ip), vehicle: saline with Tween-80): 252 % of control
- T/C (dose: 12.5 mg/kg/injection, schedule: Q04DX003 (ip), vehicle: saline with Tween-80): 190 % of control
- T/C (dose: 25.0 mg/kg/injection, schedule: Q04DX003 (ip), vehicle: saline with Tween-80): 177 % of control
- T/C (dose: 50.0 mg/kg/injection, schedule: Q04DX003 (ip), vehicle: saline with Tween-80): 218 % of control

Structure (SMILES): O=C(O)C1OC(n2cc(F)c(=O)[nH]c2=O)CC1O (stereo not given)
- T/C [1]: 108 % of control
- T/C [2]: 116 % of control
- T/C [3]: 106 % of control
- T/C (dose: 300.0 mg/kg/injection, schedule: Q04DX003 (ip), vehicle: saline): 108 % of control

Structure (SMILES): CC(=O)Nc1ccccc1F
- T/C [4]: 100 % of control
- T/C [5]: 87 % of control
- T/C [6]: 91 % of control
- T/C (dose: 200.0 mg/kg/injection, schedule: Q04DX003 (ip), vehicle: Klucel (hydroxypropylcellulose) (HPC)): 104 % of control
- T/C [7]: 100 % of control

Structure (SMILES): CC/C(=C(/CC)c1ccc(O)cc1)c1ccc(O)cc1
- T/C (dose: 12.5 mg/kg/injection, schedule: Q01DX009 (ip), vehicle: carboxymethylcellulose (CMC)): 105 % of control
- T/C (dose: 12.5 mg/kg/injection, schedule: Q01DX010 (ip), vehicle: saline): 100 % of control and 110 % of control
- T/C (dose: 25.0 mg/kg/injection, schedule: Q01DX009 (ip), vehicle: carboxymethylcellulose (CMC)): 89 % of control and 93 % of control
- T/C (dose: 25.0 mg/kg/injection, schedule: Q01DX010 (ip), vehicle: saline): 110 % of control
- T/C (dose: 50.0 mg/kg/injection, schedule: Q01DX008 (ip), vehicle: saline with Tween-80): 114 % of control and 120 % of control
- T/C (dose: 50.0 mg/kg/injection, schedule: Q01DX009 (ip), vehicle: carboxymethylcellulose (CMC)): 97 % of control
- T/C (dose: 50.0 mg/kg/injection, schedule: Q01DX010 (ip), vehicle: saline): 100 % of control and 115 % of control
- T/C (dose: 100.0 mg/kg/injection, schedule: Q01DX008 (ip), vehicle: saline with Tween-80): 110 % of control and 116 % of control
- T/C (dose: 100.0 mg/kg/injection, schedule: Q01DX009 (ip), vehicle: carboxymethylcellulose (CMC)): 88 % of control and 90 % of control
- T/C (dose: 100.0 mg/kg/injection, schedule: Q01DX010 (ip), vehicle: saline): 90 % of control and 95 % of control
- T/C (dose: 200.0 mg/kg/injection, schedule: Q01DX008 (ip), vehicle: saline with Tween-80): 111 % of control and 112 % of control
- T/C (dose: 200.0 mg/kg/injection, schedule: Q01DX009 (ip), vehicle: carboxymethylcellulose (CMC)): 114 % of control
- T/C (dose: 400.0 mg/kg/injection, schedule: Q01DX008 (ip), vehicle: saline with Tween-80): 112 % of control

Structure (SMILES): CC1C(N2CCOCC2)CS1(=O)=O (stereo not given)
- T/C [4]: 100 % of control
- T/C [6]: 115 % of control
- T/C [7]: 105 % of control

Structure (SMILES): Nc1ncnc2c1cnn2Cc1ccc(Cl)cc1
- T/C (dose: 12.5 mg/kg/injection, schedule: Q04DX003 (ip), vehicle: Klucel (hydroxypropylcellulose) (HPC)): 118 % of control
- T/C (dose: 16.5 mg/kg/injection, schedule: Q04DX003 (ip), vehicle: Klucel (hydroxypropylcellulose) (HPC)): 91 % of control and 100 % of control
- T/C (dose: 25.0 mg/kg/injection, schedule: Q01DX009 (ip), vehicle: Klucel (hydroxypropylcellulose) (HPC)): 90 % of control
- T/C [8]: 91 % of control and 100 % of control
- T/C (dose: 37.5 mg/kg/injection, schedule: Q04DX003 (ip), vehicle: Klucel (hydroxypropylcellulose) (HPC)): 95 % of control
- T/C (dose: 50.0 mg/kg/injection, schedule: Q01DX009 (ip), vehicle: Klucel (hydroxypropylcellulose) (HPC)): 95 % of control
- T/C [9]: 104 % of control

Structure (SMILES): COC(=O)C(Br)C(OC)c1ccccc1 (stereo not given)
- T/C [4]: 91 % of control
- T/C [6]: 95 % of control
- T/C [7]: 95 % of control

Structure (SMILES): CC(NC(=O)OCc1ccccc1)C(=O)NC(CC(=O)O)C(=O)O (stereo not given)
- T/C (dose: 25.0 mg/kg/injection, schedule: Q04DX003 (ip), vehicle: saline): 100 % of control
- T/C [1]: 100 % of control
- T/C [2]: 110 % of control

Structure (SMILES): Cc1ccc2c(c1)C(=O)CC=C(C(=O)O)N2
- T/C [2]: 100 % of control
- T/C [10]: 87 % of control
- T/C [3]: 110 % of control
- T/C (dose: 400.0 mg/kg/injection, schedule: Q04DX003 (ip), vehicle: saline): 105 % of control

Structure (SMILES): COc1ccc(/C=C/C2(O)N(C)C(=O)N(C)C(=O)N2C)cc1
- T/C [11]: 89 % of control
- T/C [12]: 99 % of control
- T/C [13]: 118 % of control

Structure (SMILES): O=S1(=O)C=CCC2C3CCC(C3)C21 (stereo not given)
- T/C (dose: 100.0 mg/kg/injection, schedule: Q01DX001 (ip), vehicle: saline with Tween-80): 100 % of control
- T/C (dose: 200.0 mg/kg/injection, schedule: Q01DX001 (ip), vehicle: saline with Tween-80): 106 % of control

Structure (SMILES): CO/C(O)=c1/nc2c(n(C)c1=N)=CCCC2
- T/C [14]: 100 % of control
- T/C [15]: 104 % of control

Structure (SMILES): Cn1nc(NC(=O)C(F)(F)F)c2nccnc21
- T/C [16]: 100 % of control
- T/C [17]: 100 % of control
- T/C [18]: 100 % of control

Structure (SMILES): c1ccc(COc2ccccn2)cc1
- T/C [8]: 90 % of control
- T/C [9]: 95 % of control
- T/C [5]: 90 % of control

Structure (SMILES): CCCc1nn2c(-c3ccccc3)nnc2o1
- T/C [16]: 110 % of control
- T/C [17]: 115 % of control
- T/C [18]: 110 % of control

Structure (SMILES): Cc1ncc2n1C=CN(C(=O)c1ccc([N+](=O)[O-])cc1)C2O (stereo not given)
- T/C (dose: 50.0 mg/kg/injection, schedule: Q01DX009 (ip), vehicle: water): 103 % of control
- T/C (dose: 100.0 mg/kg/injection, schedule: Q01DX009 (ip), vehicle: water): 94 % of control
- T/C [19]: 102 % of control
- T/C (dose: 200.0 mg/kg/injection, schedule: Q01DX009 (ip), vehicle: water): 93 % of control
- T/C [20]: 93 % of control
- T/C (dose: 400.0 mg/kg/injection, schedule: Q01DX009 (ip), vehicle: water): 94 % of control
- T/C (dose: 400.0 mg/kg/injection, schedule: Q04DX003 (ip), vehicle: water): 98 % of control

Structure (SMILES): CC(C)(C)N1CC1CN (stereo not given)
- T/C [11]: 90 % of control
- T/C [12]: 90 % of control
- T/C [13]: 89 % of control
- T/C (dose: 400.0 mg/kg/injection, schedule: Q01DX009 (ip), vehicle: saline): 121 % of control

Structure (SMILES): CC(=O)OCC(=O)[C@@]1(O)CC[C@H]2[C@@H]3CCC4=CC(=O)CC[C@]4(C)[C@H]3C(=O)C[C@@]21C
- T/C [14]: 95 % of control
- T/C [15]: 112 % of control
- T/C [16]: 100 % of control
- T/C [10]: 100 % of control
- T/C [17]: 86 % of control

Structure (SMILES): Cc1ccc(C(=O)N=[N+]=[N-])o1
- T/C [14]: 108 % of control

Structure (SMILES): CCOC(=O)CNCc1ccc(Cl)c(Cl)c1
- T/C (dose: 50.0 mg/kg/injection, schedule: Q04DX003 (ip), vehicle: water): 111 % of control
- T/C [19]: 113 % of control
- T/C [20]: 111 % of control
